In patent US8802597B2, “Herbicidal pyrimidines” (E I du Pont de Nemours and Company, priority 2003, dated 2014):
Where two headings read alike, the source gives them in different places.

Legend:
Assay in all cases: Test C pre/postemergence
Assay type in all cases: in vivo
[1] = test system: crabgrass (Digitaria sanguinalis); conditions: Digitaria sanguinalis; for pest or weed control at 125 g/ha: 125 g ai/ha; for pest or weed control at 250 g/ha: 250 g ai/ha
In short: (§1)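 Rating scale 0–100: 0 means no effect, 100 complete control; taken visually 12 to 14 days post-treatment versus controls. Pre- and postemergence greenhouse applications, postemergence at 1- to 4-leaf stage, non-phytotoxic solvent with surfactant as carrier.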

[2] = test system: lambsquarters (Chenopodium album); conditions: Chenopodium album; for pest or weed control at 31 g/ha: 31 g ai/ha; for pest or weed control at 62 g/ha: 62 g ai/ha; for pest or weed control at 125 g/ha: 125 g ai/ha; for pest or weed control at 250 g/ha: 250 g ai/ha
In short: as §1

corn (Zea mays) = conditions: Zea mays; for Corn plant response rating (crop injury, 0 = no effect, 100 = complete kill) at 31 g/ha: 31 g ai/ha; for Corn plant response rating (crop injury, 0 = no effect, 100 = complete kill) at 62 g/ha: 62 g ai/ha; for Corn plant response rating (crop injury, 0 = no effect, 100 = complete kill) at 125 g/ha: 125 g ai/ha; for Corn plant response rating (crop injury, 0 = no effect, 100 = complete kill) at 250 g/ha: 250 g ai/ha
In short: as §1

kochia (Kochia scoparia) = conditions: Bassia scoparia; for pest or weed control at 31 g/ha: 31 g ai/ha; for pest or weed control at 62 g/ha: 62 g ai/ha; for pest or weed control at 125 g/ha: 125 g ai/ha; for pest or weed control at 250 g/ha: 250 g ai/ha
In short: as §1

[3] = test system: Surinam grass (Brachiaria decumbens); conditions: Urochloa decumbens; for pest or weed control at 125 g/ha: 125 g ai/ha; for pest or weed control at 31 g/ha: 31 g ai/ha; for pest or weed control at 62 g/ha: 62 g ai/ha; for pest or weed control at 250 g/ha: 250 g ai/ha
In short: as §1

[4] = test system: velvetleaf (Abutilon theophrasti); conditions: Abutilon theophrasti; for pest or weed control at 31 g/ha: 31 g ai/ha; for pest or weed control at 62 g/ha: 62 g ai/ha; for pest or weed control at 125 g/ha: 125 g ai/ha; for pest or weed control at 250 g/ha: 250 g ai/ha
In short: as §1

[5] = pre-emergence, Preemergence, scale 0 to 100, read-out: Plant response rating, Crabgrass
[6] = post-emergence, Postemergence, scale 0 to 100 (0 no effect, 100 complete control), read-out: Lambsquarters plant response rating
[7] = pre-emergence, Preemergence, scale 0 to 100, 0 no effect, 100 complete control, read-out: Plant response rating, Lambsquarters
[8] = pre-emergence, Preemergence, scale 0 to 100, read-out: Plant response rating, Lambsquarters
[9] = post-emergence, Postemergence, scale 0 to 100 (0 no effect, 100 complete control), read-out: Corn plant response rating
[10] = pre-emergence, Preemergence, scale 0 to 100, 0 no effect, 100 complete control, read-out: Plant response rating, Corn
[11] = post-emergence, Postemergence, scale 0 to 100 (0 no effect, 100 complete control), read-out: Kochia plant response rating
[12] = pre-emergence, Preemergence, scale 0 to 100, 0 no effect, 100 complete control, read-out: Plant response rating, Kochia
[13] = pre-emergence, Preemergence, scale 0 to 100, read-out: Plant response rating, Kochia
[14] = post-emergence, Postemergence, scale 0 to 100 (0 no effect, 100 complete control), read-out: Surinam Grass plant response rating
[15] = pre-emergence, Preemergence, scale 0 to 100, 0 no effect, 100 complete control, read-out: Plant response rating, Surinam Grass
[16] = pre-emergence, Preemergence, scale 0 to 100, read-out: Plant response rating, Surinam Grass
[17] = post-emergence, Postemergence, scale 0 to 100 (0 no effect, 100 complete control), read-out: Velvetleaf plant response rating
[18] = pre-emergence, Preemergence, scale 0 to 100, 0 no effect, 100 complete control, read-out: Plant response rating, Velvetleaf
[19] = pre-emergence, Preemergence, scale 0 to 100, read-out: Plant response rating, Velvetleaf

`COC(=O)c1nc(C2CC2)nc(N)c1Cl` [Compound 9, methyl 6-amino-5-chloro-2-cyclopropyl-4-pyrimidinecarboxylate] was tested, and the pest or weed control at 125 g/ha ([1]; post-emergence, Postemergence, scale 0 to 100 (0 no effect, 100 complete control), read-out: Crabgrass plant response rating) was 75%, the pest or weed control at 250 g/ha ([1]; post-emergence, Postemergence, scale 0 to 100, read-out: Plant response rating, Crabgrass) was 80% and the pest or weed control at 31 g/ha ([1]; pre-emergence, Preemergence, 31 g ai/ha, scale 0 to 100, 0 no effect, 100 complete control, read-out: Plant response rating, Crabgrass) was 20%. The pest or weed control at 62 g/ha ([1]; pre-emergence, Preemergence, 62 g ai/ha, scale 0 to 100, 0 no effect, 100 complete control, read-out: Plant response rating, Crabgrass) was 95%, the pest or weed control at 125 g/ha [1, 5] was 95% and the pest or weed control at 250 g/ha [1, 5] was 100%. For the same compound, the pest or weed control at 31 g/ha ([2]; post-emergence, Postemergence, read-out: Plant response rating (scale of 0 to 100), Lambsquarters) was 90%, the pest or weed control at 62 g/ha [2, 6] was 95% and the pest or weed control at 125 g/ha [2, 6] was 100%. For the same compound, the pest or weed control at 250 g/ha ([2]; post-emergence, Postemergence, scale 0 to 100, read-out: Plant response rating, Lambsquarters) was 100%, the pest or weed control at 31 g/ha [2, 7] was 95% and the pest or weed control at 62 g/ha [2, 7] was 100%. For the same compound, the pest or weed control at 125 g/ha [2, 8] was 100%, the pest or weed control at 250 g/ha [2, 8] was 100% and the Corn plant response rating (crop injury, 0 = no effect, 100 = complete kill) at 31 g/ha (corn (Zea mays); post-emergence, Postemergence, read-out: Plant response rating (scale of 0 to 100), Corn) was 45%. It also gave a Corn plant response rating (crop injury, 0 = no effect, 100 = complete kill) at 62 g/ha (corn (Zea mays); [9]) of 55%, a Corn plant response rating (crop injury, 0 = no effect, 100 = complete kill) at 125 g/ha (corn (Zea mays); [9]) of 65% and a Corn plant response rating (crop injury, 0 = no effect, 100 = complete kill) at 250 g/ha (corn (Zea mays); post-emergence, Postemergence, scale 0 to 100) of 95%. For the same compound, the Corn plant response rating (crop injury, 0 = no effect, 100 = complete kill) at 31 g/ha (corn (Zea mays); [10]) was 0%, the Corn plant response rating (crop injury, 0 = no effect, 100 = complete kill) at 62 g/ha (corn (Zea mays); [10]) was 5% and the Corn plant response rating (crop injury, 0 = no effect, 100 = complete kill) at 125 g/ha (corn (Zea mays); pre-emergence, Preemergence, scale 0 to 100, read-out: Plant response rating, Corn) was 60%. For the same compound, the Corn plant response rating (crop injury, 0 = no effect, 100 = complete kill) at 250 g/ha (corn (Zea mays); pre-emergence, Preemergence, scale 0 to 100) was 75%, the pest or weed control at 31 g/ha (kochia (Kochia scoparia); post-emergence, Postemergence, read-out: Plant response rating (scale of 0 to 100), Kochia) was 95% and the pest or weed control at 62 g/ha (kochia (Kochia scoparia); [11]) was 100%. It also gave a pest or weed control at 125 g/ha (kochia (Kochia scoparia); [11]) of 100%, a pest or weed control at 250 g/ha (kochia (Kochia scoparia); post-emergence, Postemergence, scale 0 to 100, read-out: Plant response rating, Kochia) of 100% and a pest or weed control at 31 g/ha (kochia (Kochia scoparia); [12]) of 95%. For the same compound, the pest or weed control at 62 g/ha (kochia (Kochia scoparia); [12]) was 95%, the pest or weed control at 125 g/ha (kochia (Kochia scoparia); [13]) was 100% and the pest or weed control at 250 g/ha (kochia (Kochia scoparia); [13]) was 100%. The pest or weed control at 125 g/ha [3, 14] was 75%, the pest or weed control at 31 g/ha ([3]; post-emergence, Postemergence, read-out: Plant response rating (scale of 0 to 100), Surinam Grass) was 45% and the pest or weed control at 62 g/ha [3, 14] was 65%. It also gave a pest or weed control at 250 g/ha ([3]; post-emergence, Postemergence, scale 0 to 100, read-out: Plant response rating, Surinam Grass) of 80%, a pest or weed control at 31 g/ha [3, 15] of 95% and a pest or weed control at 62 g/ha [3, 15] of 100%. The pest or weed control at 125 g/ha [3, 16] was 100%, the pest or weed control at 250 g/ha [3, 16] was 100% and the pest or weed control at 31 g/ha ([4]; post-emergence, Postemergence, read-out: Plant response rating (scale of 0 to 100), Velvetleaf) was 0%. The pest or weed control at 62 g/ha [4, 17] was 75%, the pest or weed control at 125 g/ha [4, 17] was 80% and the pest or weed control at 250 g/ha ([4]; post-emergence, Postemergence, scale 0 to 100, read-out: Plant response rating, Velvetleaf) was 95%. The pest or weed control at 31 g/ha [4, 18] was 70%, the pest or weed control at 62 g/ha [4, 18] was 95% and the pest or weed control at 125 g/ha [4, 19] was 100%. It also gave a pest or weed control at 250 g/ha [4, 19] of 100%.
